Measurements published in patent US8916605B2, “Compounds and methods for treating cancer and viral infections” (priority 2009, dated 2014).

How the values were obtained:
[1] = test system: all three transformed neuronal cell lines (IMR32, NG108, NSC34); assay: MTT (CIMA) cell proliferation assay (Example 4); conditions: 72 h post-treatment; 0.5-250 μg/ml
Procedure: (§5) Compound preparation: Stock solutions of test compounds were prepared in dimethylsulfoxide (DMSO) at 250 mg/ml. Working concentrations of 10 mg/ml were subsequently prepared from the stock solution and stored in 50 μl aliquots at −20° C. until used.
(§6) Cells and cell culture: Three classes of cells were evaluated: 1) neuroblastoma cells, 2) neuroglioma cells, and 3) non-transformed human neurons (see below). All cells were maintained in appropriate culture medium supplemented with 10% fetal calf serum (FCS) and antibiotics in a humidified, 5% CO2 environment. Cells were passaged as required by trypsinization.
(§7) Assay conditions: The effects of the test compounds were assessed following acute and chronic exposure conditions. […] Each compound was evaluated over a broad range of concentrations (0, 0.5, 1, 5, 10, 50, 100 and 250 μg/ml) with cells treated with equivalent concentrations of vehicle (DMSO) serving as controls.
(§8) Cell proliferation assay: Cell proliferation was assessed using a standard colorimetric indicator of metabolic activity (CIMA) assay. In this assay, the reduction of yellow tetrazolium salt (MTT) to purple formazan by mitochondrial reductase enzymes in viable cells was evaluated as a measure of metabolic activity to determine the extent of cell proliferation within a culture. […]

[2] = test system: SH-SY5Y neuroblastoma cells; assay: MTT (CIMA) cell proliferation assay, acute and chronic exposure (Example 3); conditions: SH-SY5Y
Procedure: as §5
(§9) Cells and cell culture: Proof-of-principle studies in this example focused on two human brain cancer cell lines, namely SH-SY5Y neuroblastoma cells and U373 astroglioma cells. […] Both cells were maintained in (50:50) F12:DMEM medium supplemented with 10% fetal calf serum (FCS) and antibiotics in a humidified, 5% CO2 environment. Cells were passaged as required by trypsinization.
(§10) Assays conditions: The effects of the test compounds were assessed following acute and chronic exposure conditions. […] The test compounds were evaluated over a broad range of concentrations (0, 0.5, 1, 5, 10, 50, 100 and 250 μg/ml) with cells treated with equivalent concentrations of vehicle (DMSO) serving as controls.
(§11) Cell proliferation assay: Cell proliferation was assessed using a standard colorimetric indicator of metabolic activity (CIMA) assay. In this assay, the reduction of yellow tetrazolium salt (MTT) to purple formazan by mitochondrial reductase enzymes in viable cells was evaluated as a measure of metabolic activity to determine the extent of cell proliferation within a culture. The resulting colour change that conferred a change in absorbance was quantified using a spectrophotometer (λ=500-600). Samples were diluted as required to ensure that values obtained with the MTT assay fell within the linear range of the protocol. Qualitative microscopic evaluation of treated cultures was used to determine if overt cytotoxicity was present and to supplement the quantitative CIMA data.

[3] = test system: SH-SY5Y neuroblastoma cells; assay: Long term exposure, tetrazole reduction (CIMA) proliferation assay (Example 6); assay type: cell-based; conditions: for AVERAGE (mean absorbance): SHSY5Y
Procedure: (§1) Compound I(a) was termed CMPD A (LI568-026-02).
(§2) Cells were passaged as required by trypsinization.
(§3) Assay conditions: The effects of the test compound were assessed under long term exposure conditions. Cells were propagated as normal in T25 flasks in complete culture media supplemented with comparatively low concentrations of the compound (0, 1 and 5 μg/ml) for 28 days. At various times post-exposure, changes in proliferation rates were assessed using a standard CIMA assay.
(§4) For the current study, cells that have been exposed to the compound were seeded in 96-well plates and proliferation rates measured over 24 and 72 h periods for comparison to that of similarly aged untreated cells.

[4] = test system: U373 astroglioma cells; assay: as above; assay type: cell-based
Procedure: as §1, §2, §3, §4

[5] = test system: U373 astroglioma cells; assay: MTT (CIMA) cell proliferation assay, acute and chronic exposure (Example 3)
Procedure: as §5, §9, §10, §11

[6] = test system: MDCK cells; assay: Cytotoxicity assay (MTT/CIMA) in MDCK cells (Example 7)
[7] = test system: Influenza B (strain B/Lee/40); assay: Anti-influenza cytopathic effect (CPE) assay in MDCK cells, prophylactic regimen (Example 7); assay type: cell-based; design: key to CPE score: 1: Complete monolayer with few gaps or dead cells; 2: Some gaps in the monolayer; dead cells more evident; 3: Increasing number of gaps in the monolayer concurrent with dead cells; 4: Gaps widely distributed throughout the monolayer and of increasing size; 5: Large holes forming as smaller gaps merge; copious dead cells evident; 6: Monolayer integrity lost. Small islands of attached cells amid predominantly dead cells; conditions: for CPE score: Influenza B, MDCK, virus + DMSO control 4
[8] = test system: NSC34 motor neurons; assay: MTT (CIMA) cell proliferation assay (Example 4); conditions: 72 h post-treatment
Procedure: as §5, §6, §7, §8

[9] = test system: Influenza A (strain A/PR/8/34); assay: Anti-influenza cytopathic effect (CPE) assay in MDCK cells, prophylactic regimen (Example 7); assay type: cell-based; design: key to CPE score: 1: Complete monolayer with few gaps or dead cells; 2: Some gaps in the monolayer; dead cells more evident; 3: Increasing number of gaps in the monolayer concurrent with dead cells; 4: Gaps widely distributed throughout the monolayer and of increasing size; 5: Large holes forming as smaller gaps merge; copious dead cells evident; 6: Monolayer integrity lost. Small islands of attached cells amid predominantly dead cells; conditions: for CPE score: Influenza A, MDCK
[10] = both acute and chronic regimens

O=CCCCN1C(=O)c2ccccc2C1=O [Compound I(a), 4-(1,3-dioxo-1,3-dihydro-2H-isoindol-2-yl)butanal]
viability/proliferation [1]: dose-dependent decreases in viability/proliferation | decrease in MTT activity ([2]; acute treatment (24 h), 0.25 mg/ml): approximately 30% | change in MTT activity ([2]; acute treatment (24 h), other concentrations evaluated (below 0.25 mg/ml)): No significant change in MTT activity | LD50 [2, 10]: exceeds 0.25 mg/ml | decrease in MTT activity ([2]; chronic treatment (72 h), 50 μg/ml): 25% | decrease in MTT activity ([2]; chronic treatment (72 h), 100 μg/ml): 25% | decrease in MTT activity ([2]; chronic treatment (72 h), 250 μg/ml): 25% | average decrease in activity ([3]; SH-SY5Y, long term exposure up to 28 days, 1 and 5 μg/ml): approximately 20% | AVERAGE (mean absorbance) ([3]; 14 d incubation with 1 μg/ml, 24 h, control 0 μg/ml 0.492): 0.508 | AVERAGE (mean absorbance) ([3]; 14 d incubation with 5 μg/ml, 24 h, control 0 μg/ml 0.492): 0.388 | AVERAGE (mean absorbance) ([3]; 21 d incubation with 1 μg/ml, 24 h, control 0 μg/ml 0.307): 0.311 | AVERAGE (mean absorbance) ([3]; 21 d incubation with 1 μg/ml, 72 h, control 0 μg/ml 0.300): 0.268 | AVERAGE (mean absorbance) ([3]; 21 d incubation with 5 μg/ml, 24 h, control 0 μg/ml 0.307): 0.277 | AVERAGE (mean absorbance) ([3]; 21 d incubation with 5 μg/ml, 72 h, control 0 μg/ml 0.300): 0.269 | AVERAGE (mean absorbance) ([3]; 28 d incubation with 1 μg/ml, 24 h, control 0 μg/ml 0.601): 0.597 | AVERAGE (mean absorbance) ([3]; 28 d incubation with 1 μg/ml, 72 h, control 0 μg/ml 0.489): 0.389 | AVERAGE (mean absorbance) ([3]; 28 d incubation with 5 μg/ml, 24 h, control 0 μg/ml 0.601): 0.531 | AVERAGE (mean absorbance) ([3]; 28 d incubation with 5 μg/ml, 72 h, control 0 μg/ml 0.489): 0.423 | AVERAGE (mean absorbance) ([4]; 14 d incubation with 1 μg/ml, 24 h, control 0 μg/ml 0.569): 0.446 | AVERAGE (mean absorbance) ([4]; 14 d incubation with 5 μg/ml, 24 h, control 0 μg/ml 0.569): 0.437 | AVERAGE (mean absorbance) ([4]; 21 d incubation with 1 μg/ml, 24 h, control 0 μg/ml 0.617): 0.575 | AVERAGE (mean absorbance) ([4]; 21 d incubation with 1 μg/ml, 72 h, control 0 μg/ml 0.547): 0.502 | AVERAGE (mean absorbance) ([4]; 21 d incubation with 5 μg/ml, 24 h, control 0 μg/ml 0.617): 0.539 | AVERAGE (mean absorbance) ([4]; 21 d incubation with 5 μg/ml, 72 h, control 0 μg/ml 0.547): 0.478 | AVERAGE (mean absorbance) ([4]; 28 d incubation with 1 μg/ml, 24 h, control 0 μg/ml 0.567): 0.510 | AVERAGE (mean absorbance) ([4]; 28 d incubation with 1 μg/ml, 72 h, control 0 μg/ml 0.598): 0.507 | AVERAGE (mean absorbance) ([4]; 28 d incubation with 5 μg/ml, 24 h, control 0 μg/ml 0.567): 0.461 | AVERAGE (mean absorbance) ([4]; 28 d incubation with 5 μg/ml, 72 h, control 0 μg/ml 0.598): 0.514 | average decrease in activity ([4]; long term exposure up to 28 days, 1 and 5 μg/ml): approximately 20% | overt cell death / reductions in MTT activity ([5]; acute (24 h) and chronic (72 h) treatment, 0.5-250 μg/ml): Neither overt cell death nor significant reductions in MTT activity | LD50 [5, 10]: exceeds 0.25 mg/ml | Toxicity (MTT), fold changes relative to vehicle controls ([6]; 24 h exposure, 0.5 μg/ml): 1.09 fold | Toxicity (MTT), fold changes relative to vehicle controls ([6]; 24 h exposure, 1.0 μg/ml): 1.24 fold | Toxicity (MTT), fold changes relative to vehicle controls ([6]; 24 h exposure, 5.0 μg/ml): 1.18 fold | Toxicity (MTT), fold changes relative to vehicle controls ([6]; 24 h exposure, 10 μg/ml): 1.15 fold | Toxicity (MTT), fold changes relative to vehicle controls ([6]; 24 h exposure, 25 μg/ml): 1.06 fold | Toxicity (MTT), fold changes relative to vehicle controls ([6]; 24 h exposure, 50 μg/ml): 1.08 fold | Toxicity (MTT), fold changes relative to vehicle controls ([6]; 24 h exposure, 100 μg/ml): 0.98 fold | Toxicity (MTT), fold changes relative to vehicle controls ([6]; 72 h exposure, 0.5 μg/ml): 1.05 fold | Toxicity (MTT), fold changes relative to vehicle controls ([6]; 72 h exposure, 1.0 μg/ml): 0.99 fold | Toxicity (MTT), fold changes relative to vehicle controls ([6]; 72 h exposure, 5.0 μg/ml): 1.15 fold | Toxicity (MTT), fold changes relative to vehicle controls ([6]; 72 h exposure, 10 μg/ml): 1.01 fold | Toxicity (MTT), fold changes relative to vehicle controls ([6]; 72 h exposure, 25 μg/ml): 0.96 fold | Toxicity (MTT), fold changes relative to vehicle controls ([6]; 72 h exposure, 50 μg/ml, decreases exceeding 25% considered toxic): 0.71^3 fold | Toxicity (MTT), fold changes relative to vehicle controls ([6]; 72 h exposure, 100 μg/ml, decreases exceeding 25% considered toxic): 0.56 fold | cytotoxicity (summary in words) ([6]; higher concentrations (≧25 μg/ml)): toxicity associated with the compound itself | effect on CPE (summary in words) ([7]; Influenza B infection): mild to moderate reduction in CPE | CPE score ([7]; 24 hpi, 0.5 μg/ml): 3 | CPE score ([7]; 24 hpi, 1.0 μg/ml): 3 | CPE score ([7]; 24 hpi, 5.0 μg/ml): 2 | CPE score ([7]; 24 hpi, 10 μg/ml): 2 | CPE score ([7]; 24 hpi, 25 μg/ml): 4 | CPE score ([7]; 24 hpi, 50 μg/ml): 4 | CPE score ([7]; 24 hpi, 100 μg/ml): 5 | CPE score ([7]; 48 hpi, 0.5 μg/ml): 3 | CPE score ([7]; 48 hpi, 1.0 μg/ml): 3 | CPE score ([7]; 48 hpi, 5.0 μg/ml): 3 | CPE score ([7]; 48 hpi, 10 μg/ml): 3 | CPE score ([7]; 48 hpi, 25 μg/ml): 4 | CPE score ([7]; 48 hpi, 50 μg/ml): 5 | CPE score ([7]; 48 hpi, 100 μg/ml): 6 | LD50 [8]: < 0.25 mg/mL | CPE score ([9]; 0.5 μg/ml, virus + DMSO control 3): 1 ^5 | CPE score ([9]; 0.5 μg/ml, virus + DMSO control 4): 4 | CPE score ([9]; 1.0 μg/ml, virus + DMSO control 3): 1 | CPE score ([9]; 1.0 μg/ml, virus + DMSO control 4): 3 | CPE score ([9]; 5.0 μg/ml, virus + DMSO control 3): 1 | CPE score ([9]; 5.0 μg/ml, virus + DMSO control 4): 3 | CPE score ([9]; 10 μg/ml, virus + DMSO control 3): 1 | CPE score ([9]; 10 μg/ml, virus + DMSO control 4): 3 | CPE score ([9]; 25 μg/ml, virus + DMSO control 3): 1 | CPE score ([9]; 25 μg/ml, virus + DMSO control 4): 3 | CPE score ([9]; 50 μg/ml, virus + DMSO control 3): 3 | CPE score ([9]; 50 μg/ml, virus + DMSO control 4): 5 | CPE score ([9]; 100 μg/ml, virus + DMSO control 3): 4 | CPE score ([9]; 100 μg/ml, virus + DMSO control 4): 5 | effect on CPE (summary in words) ([9]; comparatively lower concentrations): mild to moderate reduction in CPE
